Where “and” joins values, the source holds several entries; their conditions need not be identical. Equal values may be shown once.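 Cultured in 96-well plates, cells were exposed to test compound for 48 hours across five concentrations. Here, GI50 denotes the concentration required for 50% inhibition of growth. The concentration for full growth arrest is given as TGI.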 *1 amine or outer side, *2 acyl side, *3 side chain or, on linkers, in order; H or OH if unused. Where a SMILES comes first, the peptide text is derived from it. [ ]: non-standard residue; d: D form. X56 = CC[C@H](C)[C@H](OC(=O)[C@@H](C)[C@@H](CC)N[*:1])C(=O)[*:2]; X32 = C[C@H](N[*:1])C(=O)C(C)(C)C(=O)[*:2]; NMeY = CN[C@@H](Cc1ccc(O)cc1)C(=O)O; NMeL = CN[C@@H](CC(C)C)C(=O)O; NMeV = CN[C@H](C(=O)O)C(C)C
Columns and labels:
Experiment in all cases: NCI anticancer screen, dose series, 48 h
[1] = test system: OVCAR-8 ovarian
[2] = test system: HCT-15 colon
[3] = test system: SK-MEL-28 melanoma
[4] = test system: HCC-2998 colon
[5] = test system: U251 CNS
[6] = test system: HCT-116 colon
[7] = test system: PC-3 prostate
[8] = test system: HS 578T breast
[9] = test system: T-47D breast
[10] = test system: NCI/ADR-RES ovarian

Structure (SMILES) | TGI [1] | TGI [2] | TGI [3] | TGI [4] | TGI [5] | TGI [6] | GI50 [6] | GI50 [1] | GI50 [2] | GI50 [4] | GI50 [5] | GI50 [7] | TGI [7] | GI50 [8] | TGI [8] | GI50 [9] | TGI [9] | TGI [10] | GI50 [3]
COc1cc(Nc2nc3ccc(C(F)(F)F)cc3nc2-c2ccccc2)cc(OC)c1OC | > 100 µM | > 100 µM | > 100 µM | 25.9 µM | > 100 µM |  |  |  |  |  |  |  |  |  |  |  |  |  | 
N#C/C(=C\c1ccc(C(O)P(=O)(O)O)cc1)C(N)=O (centres undefined) | > 100 µM | > 100 µM | > 100 µM | > 100 µM | > 100 µM | > 100 µM |  |  |  |  |  |  |  |  |  |  |  |  | 
C1COCCOCCOCCOCCO1.CC(=O)[CH-]C(C)=O.CC(=O)[CH-]C(C)=O.CC(=O)[CH-]C(C)=O.[V] | 76.3 µM | 57.9 µM | 23.9 µM | 40.1 µM | 52.8 µM | 27.3 µM | 13.4 µM | 30.6 µM | 20.7 µM | 19.6 µM | 20.6 µM |  |  |  |  |  |  |  | 
CC1(O)CCC2(C#N)CCC1C2O (centres undefined) | > 100 µM | > 100 µM | > 100 µM | > 100 µM | > 100 µM | > 100 µM |  |  |  |  |  |  |  |  |  |  |  |  | 
O=C1CS/C(=N\S(=O)(=O)c2ccc(N3N=C4c5ccccc5CC4C3c3ccc(Cl)cc3)cc2)N1c1ccccc1 (centres undefined) | > 100 µM | > 100 µM |  |  | 64.8 µM | > 100 µM | 38.7 µM | 34.6 µM | 34.8 µM |  | 27.8 µM | 22.6 µM | 58.6 µM | 29.4 µM | 87.4 µM | 41.7 µM | > 100 µM |  | 
CC[C@H](C)[C@@H]1OC(=O)[C@@H](C)[C@@H](CC)NC(=O)[C@H](C)NC(=O)C(C)(C)C(=O)[C@H](C)NC(=O)[C@H](Cc2ccc(OC)cc2)N(C)C(=O)[C@H](C(C)C)N(C)C(=O)CNC(=O)[C@H](CC(C)C)N(C)C(=O)CNC1=O (cyclo(A[X56]G[NMeL]G[NMeV][NMeY](Me)[X32])) | 1.45 µM | > 34.2 µM | 0.165 µM | 3.94 µM | 1.08 µM and 0.15 µM | 11.3 µM |  | 0.0335 µM | 0.222 µM |  |  |  | 6.85 µM |  |  |  |  | 9.92 µM | 0.0727 µM and < 0.0164 µM
Cc1ccc(Sc2sc(-c3ccccc3)nc2[P+](c2ccccc2)(c2ccccc2)c2ccccc2)cc1 | 1.67 µM | 1.14 µM | 1.88 µM | 1.63 µM | 1.4 µM | 1.11 µM | 0.246 µM | 0.305 µM | 0.3 µM | 0.453 µM | 0.214 µM | 0.283 µM | 1.18 µM |  |  |  |  |  | 0.605 µM
COc1cc(/C=C(\OC(C)=O)c2ccc3c(c2)OCO3)cc(OC)c1OC | 33.9 µM | 36.9 µM | 41.9 µM | > 100 µM | 47.4 µM | 38.9 µM |  |  |  | > 100 µM |  |  |  |  |  |  |  |  | 
CCOC(=O)/C(=C\c1ccc[nH]1)C(=O)c1ccccc1 | > 100 µM | > 100 µM | > 100 µM | > 100 µM | > 100 µM | > 100 µM |  |  |  |  |  |  |  |  |  |  |  |  | 
CC/C=C/c1cc2cc[nH]c2c2c1C(C)C[C@@H]2C (some centres undefined) | 66.2 µM | 82.5 µM | 84.4 µM |  | 51.2 µM | 29.7 µM |  |  |  |  |  |  |  |  |  |  |  |  | 
O=C(c1ccc(Cl)cc1)c1ccc(OCCSCCCCCCCCCCSCCOc2ccc(C(=O)c3ccc(Cl)cc3)cc2)cc1 | > 100 µM | > 100 µM | > 100 µM | > 100 µM | > 100 µM |  |  |  |  |  |  |  |  |  |  |  |  |  | 
N#CC1C2CCC3(CC2CCN1C(=O)c1ccccc1)OCCO3 (centres undefined) | > 100 µM | > 100 µM | > 100 µM | > 100 µM | > 100 µM | > 100 µM |  |  |  |  |  |  |  |  |  |  |  |  | 
N#CC1CC2(C(=O)C1=O)c1ccccc1-c1ccccc12 (centres undefined) | > 100 µM | > 100 µM | > 100 µM | > 100 µM | > 100 µM | > 100 µM |  |  |  |  |  |  |  |  |  |  |  |  | 
c1ccc(COC2(OCc3ccccc3)CC3OC2C2NN=NC32)cc1 (centres undefined) |  | 90.6 µM | 35.4 µM | > 10 µM | 32.6 µM |  |  |  |  |  |  |  |  |  |  |  |  |  | 
COc1cc2c(c(OC)c1OC)-c1ccc(OC)c(=O)cc1[C@@H](N(C)C=O)CC2 | > 100 µM | > 100 µM | > 100 µM | > 100 µM | > 4.68 µM | 6.83 µM |  |  |  |  |  |  |  |  |  |  |  |  | 
CC(=O)/C=C/c1ccc(C)cc1 | > 100 µM | > 100 µM | > 100 µM | > 100 µM | > 100 µM | > 100 µM |  |  |  |  |  |  |  |  |  |  |  |  | 
C1=Nc2ccccc2C=Nc2ccccc2C=Nc2ccccc2C=Nc2ccccc21.[Cl-].[Pt+2] | > 100 µM | 83.1 µM | 64.4 µM |  | 27.5 µM | > 100 µM | 25.9 µM | 17.5 µM | 22.3 µM |  | 10.5 µM |  |  |  |  |  |  |  | 14.8 µM
O=C(/C=C/c1ccccc1Cl)c1ccc(Cl)cc1Cl | 29.3 µM | 25.4 µM | 24.8 µM | 33.1 µM | 25.5 µM | 20.5 µM |  |  |  |  |  |  |  |  |  |  |  |  | 
